Reference: patent US6525001B1, “Substituted pyrimidine and pyridine herbicides” (Mid-American Commercialization Corporation, priority 1997, dated 2003)

Legend:
Assay type in all cases: in vivo
Details in all cases: PREEMERGENCE
[1] = test system: barnyardgrass (Echinochloa crus-galli); assay: Test C; set-up: key: 0 was no effect; 100 was complete control
[2] = test system: tall mallow (Malva sylvestris); assay: Test E pre-/postemergence/post directed; set-up: key: 0 is no effect; 100 is complete control
Text: (§1) Seeds, tubers, or plant parts of alexandergrass (Brachiaria plantaginea), annual bluegrass (Poa annua), arrowleaf sida (Sida rhombifolia), barnyardgrass (Echinochloa crus-galli), bermudagrass (Cynodon dactylon), citrus (Citrus sinensis), common chickweed (Stellaria media), common purslane (Portulaca oleracea), common ragweed (Ambrosia elatior), common groundsel (Senecio vulgaris), dallisgrass (Paspalum dilatatum), goosegrass (Eleusine indica), green foxtail (Setaria viridis), guineagrass (Panicum maximum), itchgrass (Rottboellia exaltata), johnson grass (Sorghum halepense), kochia (Kochia scoparia), large crabgrass (Digitaria sanguinalis), leafy spurge (Euphorbia esula), pitted morningglory (Ipomoea lacunosa), purple nutsedge (Cyperus rotundus), quackgrass (Agropyron repens), Russian thistle (Salsola kali), sandbur (Cenchrus echinatus), sourgrass (Trichachne insularis), Spanishneedles (Bidens bipinnata), sugarcane (Saccharum officinarum), surinam grass (Brachiaria decumbens) and tall mallow (Malva sylvestris) were planted into greenhouse pots of flats containing greenhouse planting medium. Plant species were grown grown in separate pots or individual compartments. Preemergence applications were made within one day of planting the seed or plant part. Postemergence applications were applied when the plants were in the two to four leaf stage (three to twenty cm).
(§2) Test chemicals were formulated in a non-phytotoxic solvent mixture which included a surfactant and applied preemergence to the soil surface, postemergence to the plants or as a post directed spray to plants and soil at the base of the target species. Untreated control plants and treated plants were placed in the greenhouse and visually evaluated for injury 13 to 21 days after herbicide application. Plant response ratings, summarized in Table E, are based on a 0 to 100 scale where 0 is no injury and 100 is complete control. A dash (−) response means no test result.

[3] = test system: common groundsel (Senecio vulgaris); assay: Test E pre-/postemergence/post directed; set-up: key: 0 is no effect; 100 is complete control
Text: as §1, §2

[4] = test system: common purslane (Portulaca oleracea); assay: Test E pre-/postemergence/post directed; set-up: key: 0 is no effect; 100 is complete control
Text: as §1, §2

[5] = test system: large crabgrass (Digitaria sanguinalis); assay: Test E pre-/postemergence/post directed; set-up: key: 0 is no effect; 100 is complete control
Text: as §1, §2

[6] = test system: guineagrass (Panicum maximum); assay: Test E pre-/postemergence/post directed; set-up: key: 0 is no effect; 100 is complete control
Text: as §1, §2

[7] = test system: goosegrass (Eleusine indica); assay: Test E pre-/postemergence/post directed; set-up: key: 0 is no effect; 100 is complete control
Text: as §1, §2

[8] = test system: sourgrass (Trichachne insularis); assay: Test E pre-/postemergence/post directed; set-up: key: 0 is no effect; 100 is complete control
Text: as §1, §2

[9] = test system: dallisgrass (Paspalum dilatatum); assay: Test E pre-/postemergence/post directed; set-up: key: 0 is no effect; 100 is complete control
Text: as §1, §2

[10] = test system: surinam grass (Brachiaria decumbens); assay: Test E pre-/postemergence/post directed; set-up: key: 0 is no effect; 100 is complete control
Text: as §1, §2

[11] = test system: velvetleaf (Abutilon theophrasti); assay: Test C
[12] = test system: redroot pigweed (Amaranthus retroflexus); assay: Test C; set-up: key: 0 was no effect; 100 was complete control
[13] = test system: ladysthumb smartweed (Polygonum persicaria); assay: Test C
[14] = test system: johnsongrass (Sorghum halepense); assay: Test C
[15] = test system: common ragweed (Ambrosia elatior); assay: Test C
[16] = test system: fall panicum (Panicum dichotomiflorum); assay: Test C; set-up: key: 0 was no effect; 100 was complete control

Cc1cnc(-n2ccc(C(F)(F)F)n2)nc1Cc1cccc(OC(F)(F)F)c1 [Compound 42]
Plant response rating, Barnyardgrass ([1]; Rate 35 g/ha): 5 | Plant response rating, Barnyardgrass ([1]; Rate 70 g/ha): 10 | Plant response rating, Barnyardgrass ([1]; Rate 140 g/ha): 100 | Plant response rating, Tall Mallow ([2]; Rate 32 g/ha): 98 | Plant response rating, Tall Mallow ([2]; Rate 64 g/ha): 98 | Plant response rating, Tall Mallow ([2]; Rate 125 g/ha): 98 | Plant response rating, Tall Mallow ([2]; Rate 250 g/ha): 100 | Plant response rating, Com. groundsel ([3]; Rate 64 g/ha): 100 | Plant response rating, Com. groundsel ([3]; Rate 125 g/ha): 100 | Plant response rating, Com. groundsel ([3]; Rate 250 g/ha): 100 | Plant response rating, Com. purslane ([4]; Rate 32 g/ha): 100 | Plant response rating, Com. purslane ([4]; Rate 64 g/ha): 100 | Plant response rating, Com. purslane ([4]; Rate 125 g/ha): 100 | Plant response rating, Com. purslane ([4]; Rate 250 g/ha): 100 | Plant response rating, Large crabgrass ([5]; Rate 125 g/ha): 100 | Plant response rating, Large crabgrass ([5]; Rate 250 g/ha): 100 | Plant response rating, Guineagrass ([6]; Rate 32 g/ha): 95 | Plant response rating, Guineagrass ([6]; Rate 64 g/ha): 95 | Plant response rating, Guineagrass ([6]; Rate 125 g/ha): 100 | Plant response rating, Guineagrass ([6]; Rate 250 g/ha): 100 | Plant response rating, Goosegrass ([7]; Rate 32 g/ha): 98 | Plant response rating, Goosegrass ([7]; Rate 64 g/ha): 100 | Plant response rating, Goosegrass ([7]; Rate 125 g/ha): 100 | Plant response rating, Goosegrass ([7]; Rate 250 g/ha): 100 | Plant response rating, Sourgrass ([8]; Rate 32 g/ha): 100 | Plant response rating, Sourgrass ([8]; Rate 64 g/ha): 100 | Plant response rating, Sourgrass ([8]; Rate 125 g/ha): 100 | Plant response rating, Sourgrass ([8]; Rate 250 g/ha): 100 | Plant response rating, Dallisgrass ([9]; Rate 32 g/ha): 70 | Plant response rating, Dallisgrass ([9]; Rate 64 g/ha): 95 | Plant response rating, Dallisgrass ([9]; Rate 125 g/ha): 100 | Plant response rating, Dallisgrass ([9]; Rate 250 g/ha): 100 | Plant response rating, Surinam grass ([10]; Rate 125 g/ha): 100 | Plant response rating, Surinam grass ([10]; Rate 250 g/ha): 100 | Plant response rating, Velvetleaf ([11]; Rate 35 g/ha): 40 | Plant response rating, Velvetleaf ([11]; Rate 70 g/ha): 80 | Plant response rating, Velvetleaf ([11]; Rate 140 g/ha): 95 | Plant response rating, Redroot pigweed ([12]; Rate 35 g/ha): 100 | Plant response rating, Redroot pigweed ([12]; Rate 70 g/ha): 100 | Plant response rating, Redroot pigweed ([12]; Rate 140 g/ha): 100 | Plant response rating, Ladysthumb ([13]; Rate 35 g/ha): 90 | Plant response rating, Ladysthumb ([13]; Rate 70 g/ha): 85 | Plant response rating, Ladysthumb ([13]; Rate 140 g/ha): 95 | Plant response rating, Johnsongrass ([14]; Rate 35 g/ha): 70 | Plant response rating, Johnsongrass ([14]; Rate 70 g/ha): 70 | Plant response rating, Johnsongrass ([14]; Rate 140 g/ha): 85 | Plant response rating, Common ragweed ([15]; Rate 35 g/ha): 20 | Plant response rating, Common ragweed ([15]; Rate 70 g/ha): 85 | Plant response rating, Common ragweed ([15]; Rate 140 g/ha): 85 | Plant response rating, Fall panicum ([16]; Rate 35 g/ha): 50 | Plant response rating, Fall panicum ([16]; Rate 70 g/ha): 85 | Plant response rating, Fall panicum ([16]; Rate 140 g/ha): 100
